This assay deals with BDF1 mice, B16 melanoma ip, median survival T/C. Put plainly: NCI In Vivo Anticancer Drug Screen. Data for tumor model B16 Melanoma (intraperitoneal) in B6D2F1 (BDF1) mice. The settings on record: endpoint: median survival time, higher = longer survival. The method in brief:
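Antitumor activity is assessed in mice bearing a transplanted tumor, with survival or tumor size compared against vehicle-dosed controls and expressed as T/C.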

[1] abbreviates: dose: 25.0 mg/kg/injection, schedule: Q01DX009 (ip), vehicle: saline with Tween-80.
Setting [2] is: dose: 50.0 mg/kg/injection, schedule: Q01DX009 (ip), vehicle: saline with Tween-80.
[3] abbreviates: dose: 100.0 mg/kg/injection, schedule: Q01DX009 (ip), vehicle: saline with Tween-80.
The mark [4] stands for this setting: dose: 200.0 mg/kg/injection, schedule: Q01DX009 (ip), vehicle: saline with Tween-80.
The mark [5] stands for this setting: dose: 50.0 mg/kg/injection, schedule: Q01DX009 (ip), vehicle: saline.
Where [6] appears, read: dose: 100.0 mg/kg/injection, schedule: Q01DX009 (ip), vehicle: saline.
[7] abbreviates: dose: 3.12 mg/kg/injection, schedule: Q01DX009 (ip), vehicle: saline.
[8] abbreviates: dose: 6.25 mg/kg/injection, schedule: Q01DX009 (ip), vehicle: saline.
[9] abbreviates: dose: 12.5 mg/kg/injection, schedule: Q01DX009 (ip), vehicle: saline.
The mark [10] stands for this setting: dose: 25.0 mg/kg/injection, schedule: Q01DX009 (ip), vehicle: saline.
[11] abbreviates: dose: 0.19 mg/kg/injection, schedule: Q01DX009 (ip), vehicle: saline.
Setting [12] is: dose: 0.39 mg/kg/injection, schedule: Q01DX009 (ip), vehicle: saline.
Setting [13] is: dose: 0.78 mg/kg/injection, schedule: Q01DX009 (ip), vehicle: saline.
[14] abbreviates: dose: 1.56 mg/kg/injection, schedule: Q01DX009 (ip), vehicle: saline.
Setting [15] is: dose: 12.5 mg/kg/injection, schedule: Q01DX009 (ip), vehicle: saline with Tween-80.
[16] abbreviates: dose: 400.0 mg/kg/injection, schedule: Q01DX009 (ip), vehicle: saline with Tween-80.
[17] abbreviates: dose: 100.0 mg/kg/injection, schedule: Q01DX009 (ip), vehicle: Klucel (hydroxypropylcellulose) (HPC).
The mark [18] stands for this setting: dose: 200.0 mg/kg/injection, schedule: Q01DX009 (ip), vehicle: Klucel (hydroxypropylcellulose) (HPC).
Where [19] appears, read: dose: 25.0 mg/kg/injection, schedule: Q01DX009 (ip), vehicle: Klucel (hydroxypropylcellulose) (HPC).
Setting [20] is: dose: 50.0 mg/kg/injection, schedule: Q01DX009 (ip), vehicle: Klucel (hydroxypropylcellulose) (HPC).

Several values for one entry are separate records, joined by “and”; a condition that tells them apart may be missing. Identical values can stand only once. Inconclusive results and toxic doses are left out.

Take `Oc1ccc2ccccc2c1Cc1c(O)ccc2ccccc12`: the T/C reads like this: under setting [1], 93 % of control; under setting [2], 91 % of control; under setting [3], 94 % of control; under setting [4], 90 % of control.

Consider `Cc1cc(C)c(S(=O)(=O)O)cc1C`, for which the T/C is 115 % of control under setting [5]; 104 % of control under setting [6]; 87 % of control (dose: 200.0 mg/kg/injection, schedule: Q01DX009 (ip), vehicle: saline).

On to `CSc1ccc2c(c1)N(CCCN(C)C)c1ccccc1S2`, for which the T/C by setting is: under setting [7], 100 % of control; under setting [8], 107 % of control and 112 % of control; under setting [9], 97 % of control and 124 % of control; under setting [10], 100 % of control and 124 % of control.

As for `Nc1c2c(nc3ccccc13)CCCC2`, the T/C was 95 % of control under setting [11]; 95 % of control under setting [12]; 100 % of control under setting [13]; 95 % of control under setting [14]; 102 % of control under setting [7]; 91 % of control under setting [8]. For the same molecule, the T/C under setting [9] was 100 % of control.

For `COc1ccc2c(=O)c(C)c(-c3ccccc3)oc2c1CN(C)C`, the T/C under setting [11] is 95 % of control, the T/C under setting [12] is 103 % of control, the T/C under setting [13] was 100 % of control and the T/C under setting [14] is 96 % of control.

In the case of `COC1C(C)OC(OC2CC(C)(O)Cc3cc4c(c(O)c32)C(=O)c2c(O)cc3c(c2C4=O)OC2OC3(C)C(O)C(N(C)C)C2O)C(OC)C1(C)OC` (centres undefined), the T/C was 95 % of control (dose: 0.16 mg/kg/injection, schedule: Q01DX009 (ip), vehicle: other); 159 % of control (dose: 0.63 mg/kg/injection, schedule: Q01DX009 (ip), vehicle: other); 195 % of control (dose: 5.4 mg/kg/injection, schedule: Q04DX003 (ip), vehicle: lactic acid); 171 % of control (dose: 9.0 mg/kg/injection, schedule: Q04DX003 (ip), vehicle: lactic acid).

For `CN(C)CCOc1ccc2c(c1)C/C(=C/c1ncc([N+](=O)[O-])n1C)C2=O`, the T/C runs as follows: (dose: 6.25 mg/kg/injection, schedule: Q01DX009 (ip), vehicle: saline with Tween-80) 109 % of control; under setting [15], 100 % of control; under setting [1], 96 % of control; under setting [2], 99 % of control; under setting [3], 109 % of control.

Regarding `C=NCC#N`, the T/C by setting is: under setting [3], 93 % of control; under setting [4], 88 % of control; under setting [16], 93 % of control.

As for `N#Cc1ccccc1C(C#N)c1ccc([N+](=O)[O-])cc1` (centres undefined), the T/C under setting [3] is 100 % of control and the T/C under setting [4] is 90 % of control.

As for `COc1cc2ccc(Cc3nccc4cc(OC)c(OC)cc34)cc2cc1OC`, the T/C is 93 % of control under setting [17] and 93 % of control under setting [18].

Regarding `C[n+]1c2ccccc2c(Nc2ccc(NS(=O)(=O)CCCCN=C(N)N)cc2)c2ccc(N)cc21`, the T/C (dose: 0.75 mg/kg/injection, schedule: Q01DX009 (ip), vehicle: water) was 114 % of control; the T/C (dose: 3.0 mg/kg/injection, schedule: Q01DX009 (ip), vehicle: Klucel (hydroxypropylcellulose) (HPC)) was 170 % of control; the T/C (dose: 3.0 mg/kg/injection, schedule: Q01DX009 (ip), vehicle: water) is 171 % of control; the T/C (dose: 6.0 mg/kg/injection, schedule: Q01DX009 (ip), vehicle: Klucel (hydroxypropylcellulose) (HPC)) was 159 % of control; the T/C (dose: 6.0 mg/kg/injection, schedule: Q01DX009 (ip), vehicle: water) was 168 % of control and 176 % of control; the T/C (dose: 12.0 mg/kg/injection, schedule: Q01DX009 (ip), vehicle: water) is 184 % of control and 188 % of control. Also, the T/C (dose: 12.5 mg/kg/injection, schedule: Q04DX003 (ip), vehicle: water) is 151 % of control and the T/C (dose: 25.0 mg/kg/injection, schedule: Q04DX003 (ip), vehicle: water) is 171 % of control.

On to `CCOC(=O)c1ccc(NS(=O)c2ccccc2)cc1` (centres undefined), for which the T/C was 105 % of control under setting [2] and 91 % of control under setting [3].

As for `COc1ccc(CCN2CCCC2C(=O)O)cc1OC` (centres undefined), the T/C was 100 % of control (dose: 100.0 mg/kg/injection, schedule: Q04DX003 (ip), vehicle: saline); 105 % of control (dose: 200.0 mg/kg/injection, schedule: Q04DX003 (ip), vehicle: saline); 96 % of control (dose: 400.0 mg/kg/injection, schedule: Q04DX003 (ip), vehicle: saline).

Regarding `O=C(CC(=O)C(F)(F)F)c1csc2ccccc12`, the T/C under setting [15] was 102 % of control, the T/C under setting [1] is 97 % of control and the T/C under setting [2] is 114 % of control.

For `CC(C)(O)C(C)(O)c1cccc(Cl)c1` (centres undefined), the T/C runs as follows: (dose: 12.5 mg/kg/injection, schedule: Q01DX009 (ip), vehicle: Klucel (hydroxypropylcellulose) (HPC)) 107 % of control; under setting [19], 102 % of control; under setting [20], 88 % of control.

Consider `CSc1ccc2c(c1)C(N1CCN(C)CC1)Cc1ccccc1S2` (centres undefined), for which the T/C (dose: 1.56 mg/kg/injection, schedule: Q01DX009 (ip), vehicle: saline with Tween-80) is 109 % of control and the T/C (dose: 3.12 mg/kg/injection, schedule: Q01DX009 (ip), vehicle: saline with Tween-80) was 110 % of control.

For `COC(=O)C(C)CC(C)(C=O)OC` (centres undefined), the T/C under setting [3] is 97 % of control, the T/C under setting [4] was 100 % of control and the T/C under setting [16] was 90 % of control.

Regarding `CSCCC(NC(=O)OCC1c2ccccc2-c2ccccc21)C(=O)O` (centres undefined), the T/C under setting [20] is 103 % of control, the T/C under setting [17] is 98 % of control and the T/C under setting [18] was 87 % of control.

For `CCN1C(=O)CC2(CCN(C)CC2)C1=O`, the T/C under setting [13] is 122 % of control; the T/C under setting [14] was 117 % of control; the T/C under setting [7] was 103 % of control; the T/C under setting [8] was 108 % of control; the T/C under setting [9] was 108 % of control; the T/C under setting [10] was 102 % of control. The T/C under setting [5] was 98 % of control and the T/C under setting [6] was 96 % of control.

Consider `CCC(=S)Nc1ccc(Cl)cc1`, for which the T/C is, setting by setting: (dose: 25.0 mg/kg/injection, schedule: Q01DX009 (ip), vehicle: carboxymethylcellulose (CMC)) 100 % of control; (dose: 50.0 mg/kg/injection, schedule: Q01DX009 (ip), vehicle: carboxymethylcellulose (CMC)) 107 % of control; (dose: 100.0 mg/kg/injection, schedule: Q01DX009 (ip), vehicle: carboxymethylcellulose (CMC)) 103 % of control.

As to `C[n+]1c(-c2cccc(OCCOCCOc3cccc(-c4c5cc(N)ccc5c5ccc(N)cc5[n+]4C)c3)c2)c2cc(N)ccc2c2ccc(N)cc21`, the T/C (dose: 0.5 mg/kg/injection, schedule: Q01DX009 (ip), vehicle: water) was 110 % of control.

For the molecule `N#CC(c1ccccc1)N1CCCCC1` (centres undefined), the T/C reads like this: under setting [20], 93 % of control; under setting [17], 90 % of control.

Turning to `Cc1ccc(NC(=O)Nc2cccc(Cl)c2C)cc1C`, the T/C under setting [19] was 98 % of control, the T/C under setting [20] is 86 % of control and the T/C under setting [17] was 92 % of control.

As to `CC(C)CNC(=O)Nc1ccccc1C(F)(F)F`, the T/C was 97 % of control under setting [1]; 96 % of control under setting [2]; 86 % of control and 93 % of control under setting [3]; 105 % of control under setting [4]; 97 % of control under setting [16].

Turning to `CO[C@@]12[C@@H]3N[C@@H]3CN1C1=C(C(=O)C(NCc3ccco3)=C(C)C1=O)[C@@H]2COC(N)=O`, the T/C (dose: 0.13 mg/kg/injection, schedule: Q01DX001 (ip), vehicle: distilled water + Tween-80) was 96 % of control; the T/C (dose: 0.25 mg/kg/injection, schedule: Q01DX001 (ip), vehicle: distilled water + Tween-80) is 101 % of control; the T/C (dose: 0.5 mg/kg/injection, schedule: Q01DX001 (ip), vehicle: distilled water + Tween-80) was 111 % of control; the T/C (dose: 1.0 mg/kg/injection, schedule: Q01DX001 (ip), vehicle: distilled water + Tween-80) is 123 % of control; the T/C (dose: 6.0 mg/kg/injection, schedule: Q04DX003 (ip), vehicle: distilled water + Tween-80) is 205 % of control; the T/C (dose: 12.0 mg/kg/injection, schedule: Q04DX003 (ip), vehicle: distilled water + Tween-80) is 305 % of control. Further, the T/C (dose: 24.0 mg/kg/injection, schedule: Q04DX003 (ip), vehicle: distilled water + Tween-80) was 315 % of control.

The values above are taken from PubChem BioAssay AID192 (DTP/NCI, 2004).
